# Laboratory results taken from article PMC6225253, “Chemical Constituents and Antidepressant-Like Effects in Ovariectomized Mice of the Ethanol Extract of Alternanthera philoxeroides” (Molecules : A Journal of Synthetic Chemistry and Natural …, 2018).
# System: not given
# Assay: not given
# Settings: not given
row,SMILES,melting point [°C]
1,"COc1cc(-c2cc(=O)c3c(O)c(/C=C/C(=O)O)c(O)cc3o2)ccc1O [Compound 3a, torosaflavone E]",250 to 252

# Target: T1, recombinant human MAO-A (Homo sapiens, UniProt P21397)
# T1 construct: purchased Sigma-Aldrich
# T1 sequence (P21397 1-527): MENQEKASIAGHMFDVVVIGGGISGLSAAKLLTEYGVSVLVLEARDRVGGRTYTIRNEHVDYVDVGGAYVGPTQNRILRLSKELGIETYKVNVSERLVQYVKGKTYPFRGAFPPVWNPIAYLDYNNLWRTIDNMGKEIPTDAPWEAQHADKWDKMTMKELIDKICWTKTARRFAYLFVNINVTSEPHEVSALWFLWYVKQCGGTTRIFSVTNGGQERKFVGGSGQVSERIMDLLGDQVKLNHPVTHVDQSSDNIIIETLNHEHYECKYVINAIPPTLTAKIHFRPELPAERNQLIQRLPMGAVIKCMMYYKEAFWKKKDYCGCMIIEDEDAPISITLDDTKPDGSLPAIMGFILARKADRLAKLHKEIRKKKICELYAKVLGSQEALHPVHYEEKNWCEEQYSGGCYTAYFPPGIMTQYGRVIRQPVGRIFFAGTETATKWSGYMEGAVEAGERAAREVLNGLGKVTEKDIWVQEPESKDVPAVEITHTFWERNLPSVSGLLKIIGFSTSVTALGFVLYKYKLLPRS
# Assay: Human MAO-A inhibitory assay (kynuramine, fluorescence of 4-hydroxyquinoline)
# Type: biochemical
# Settings: based on Si
# Procedure: (§1) The crude ethanol extract of A. philoxeroides, together with its constituents, alternanthin (1a), althernanthin B (1b), torosaflavone E (3a), dimethyltorosaflavone D (3b) and chrysoeriol 7-rhamnoside (5) were tested for their inhibitory activity on MAO-A and MAO-B, using the recombinant human MAO-A and MAO-B. The rates of MAO catalysis was determined by measuring the production of 4-hydroxyquinoline by fluorescence spectrophotometry. […] For this purpose, Km values for the oxidation of kynuramine by MAO-A and MAO-B were used from previous studies, i.e., 16.1 μM for human MAO-A and 22.7 μM for human MAO-B [15].
# (§2) The MAOs inhibitory activity assay of the A. philoxeroides extract and some of its flavonoid constituents, using recombinant human MAO-A and MAO-B (Sigma-Aldrich, St. Louis, MO, USA) as enzyme sources, was performed according to the method described by Manley-King et al.. Briefly, the crude extract 100 mg was dissolved in 400 µL DMSO to prepare 250 mg/mL as a stock solution. Serial dilution of test samples (20 µL) for each concentration was used to test the activity. For 1a, 1b, 3a, 3b and 5, a stock solution of 1000 μM in DMSO was prepared and a serial dilution of the test sample (20 μL) of each concentration was used to test the activity. Concentration of MAOs was 0.0075 mg/mL for MAO-A inhibitor test, 9 µL of kynuramine (Sigma-Aldrich, St. Louis, MO, USA) was mixed with 469.5 µL of potassium phosphate buffer (pH 7.4). For MAO-B inhibitor test, 6 µL of kynuramine was mixed with 472.5 µL of potassium phosphate buffer (pH 7.4). Then 1.5 µL of the enzymes were added before incubation at 37 °C for 20 min. The reaction was stopped by adding 400 µL of 2N NaOH and 1000 µL of water. Measurement of 4-hydroxyquinoline (Sigma-Aldrich, St. Louis, MO, USA) was carried out by fluorescence spectrophotometry with the excitation wavelength at 310 nm and the emission wavelength at 400 nm. […] Data were analyzed by Prism 5 software package (GraphPad Software, version 5, San Diego, CA, USA). The IC50 values were converted to the corresponding Ki values according to the equation Ki = IC50/(1+[S]/Km).
row,SMILES,"Isoform selectivity from the selectivity index, MAO-A"
1,"COc1cc(-c2cc(=O)c3c(O)c([C@H]4C[C@H](O)[C@@H](O)[C@@H](C)O4)c(O)cc3o2)ccc1O [Compound 1a, altheranthin]",partially selective for MAO-A isoform

# Same assay, conditions: from IC50 by Cheng–Prusoff, Km 16.1 μM
row,SMILES,Ki [nM]
1,"COc1cc(-c2cc(=O)c3c(O)cc(O[C@@H]4O[C@@H](C)[C@H](O)[C@@H](O)[C@H]4O)cc3o2)ccc1O [Compound 5, chrysoeriol 7-O-rhamnoside]",804
2,"COc1cc(-c2cc(=O)c3c(O)c([C@H]4C[C@H](O)[C@@H](O)[C@@H](C)O4)c(O)cc3o2)ccc1O [Compound 1a, altheranthin]",0.12
3,"O=C(O)/C=C/c1c(O)cc2oc(-c3ccc(O)c(O)c3)cc(=O)c2c1O [Compound 3b, demethyltorosaflavone D]",133
4,"C[C@H]1O[C@@H](c2c(O)cc3oc(-c4ccc(O)c(O)c4)cc(=O)c3c2O)C[C@H](O)[C@H]1O [Compound 1b, alternanthin B]",0.54
5,"COc1cc(-c2cc(=O)c3c(O)c(/C=C/C(=O)O)c(O)cc3o2)ccc1O [Compound 3a, torosaflavone E]",4840

# Same assay, conditions: ratio of Ki values; MAO-A
row,SMILES,Si MAO-A (selectivity index between MAO-A and MAO-B)
1,"COc1cc(-c2cc(=O)c3c(O)cc(O[C@@H]4O[C@@H](C)[C@H](O)[C@@H](O)[C@H]4O)cc3o2)ccc1O [Compound 5, chrysoeriol 7-O-rhamnoside]",3.4303
2,"COc1cc(-c2cc(=O)c3c(O)c([C@H]4C[C@H](O)[C@@H](O)[C@@H](C)O4)c(O)cc3o2)ccc1O [Compound 1a, altheranthin]",0.4681
3,"O=C(O)/C=C/c1c(O)cc2oc(-c3ccc(O)c(O)c3)cc(=O)c2c1O [Compound 3b, demethyltorosaflavone D]",2.3850
4,"C[C@H]1O[C@@H](c2c(O)cc3oc(-c4ccc(O)c(O)c4)cc(=O)c3c2O)C[C@H](O)[C@H]1O [Compound 1b, alternanthin B]",5.6681
5,"COc1cc(-c2cc(=O)c3c(O)c(/C=C/C(=O)O)c(O)cc3o2)ccc1O [Compound 3a, torosaflavone E]",16.6534

# Same assay, conditions: recombinant human MAO-A, kynuramine, pH 7.4, 37 °C, 20 min; mean ± SD
row,SMILES,IC50 [nM]
1,"COc1cc(-c2cc(=O)c3c(O)cc(O[C@@H]4O[C@@H](C)[C@H](O)[C@@H](O)[C@H]4O)cc3o2)ccc1O [Compound 5, chrysoeriol 7-O-rhamnoside]",3050 ± 350
2,"C[C@H]1O[C@@H](c2c(O)cc3oc(-c4ccc(O)c(O)c4)cc(=O)c3c2O)C[C@H](O)[C@H]1O [Compound 1b, alternanthin B]",2.06
3,"COc1cc(-c2cc(=O)c3c(O)c(/C=C/C(=O)O)c(O)cc3o2)ccc1O [Compound 3a, torosaflavone E]",18400 ± 1470

# Target: T2, recombinant human MAO-B (Homo sapiens, UniProt P27338)
# T2 construct: purchased Sigma-Aldrich
# T2 sequence (P27338 1-520): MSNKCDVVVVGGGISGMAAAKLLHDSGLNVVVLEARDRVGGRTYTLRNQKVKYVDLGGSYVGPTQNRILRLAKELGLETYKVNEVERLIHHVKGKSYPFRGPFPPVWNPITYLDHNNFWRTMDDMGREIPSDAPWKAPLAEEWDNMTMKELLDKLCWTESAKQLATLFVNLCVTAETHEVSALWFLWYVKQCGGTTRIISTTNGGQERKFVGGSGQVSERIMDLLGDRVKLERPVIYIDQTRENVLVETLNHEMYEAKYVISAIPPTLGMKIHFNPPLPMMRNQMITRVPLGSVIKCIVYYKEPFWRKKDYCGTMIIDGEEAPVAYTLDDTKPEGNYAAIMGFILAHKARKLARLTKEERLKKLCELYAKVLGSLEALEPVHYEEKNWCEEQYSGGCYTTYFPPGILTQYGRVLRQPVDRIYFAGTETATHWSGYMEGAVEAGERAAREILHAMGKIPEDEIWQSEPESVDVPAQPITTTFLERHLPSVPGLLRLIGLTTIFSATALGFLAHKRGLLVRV
# Assay: Human MAO-B inhibitory assay (kynuramine, fluorescence of 4-hydroxyquinoline)
# Type: biochemical
# Settings: based on Si
# Procedure: as §1, §2
row,SMILES,"Isoform selectivity from the selectivity index, MAO-B"
1,"COc1cc(-c2cc(=O)c3c(O)cc(O[C@@H]4O[C@@H](C)[C@H](O)[C@@H](O)[C@H]4O)cc3o2)ccc1O [Compound 5, chrysoeriol 7-O-rhamnoside]",partially selective for MAO-B isoform
2,"O=C(O)/C=C/c1c(O)cc2oc(-c3ccc(O)c(O)c3)cc(=O)c2c1O [Compound 3b, demethyltorosaflavone D]",partially selective for MAO-B isoform
3,"C[C@H]1O[C@@H](c2c(O)cc3oc(-c4ccc(O)c(O)c4)cc(=O)c3c2O)C[C@H](O)[C@H]1O [Compound 1b, alternanthin B]",partially selective for MAO-B isoform
4,"COc1cc(-c2cc(=O)c3c(O)c(/C=C/C(=O)O)c(O)cc3o2)ccc1O [Compound 3a, torosaflavone E]",partially selective for MAO-B isoform

# Same assay, conditions: from IC50 by Cheng–Prusoff, Km 22.7 μM
row,SMILES,Ki [nM]
1,"COc1cc(-c2cc(=O)c3c(O)cc(O[C@@H]4O[C@@H](C)[C@H](O)[C@@H](O)[C@H]4O)cc3o2)ccc1O [Compound 5, chrysoeriol 7-O-rhamnoside]",234
2,"COc1cc(-c2cc(=O)c3c(O)c([C@H]4C[C@H](O)[C@@H](O)[C@@H](C)O4)c(O)cc3o2)ccc1O [Compound 1a, altheranthin]",0.26
3,"O=C(O)/C=C/c1c(O)cc2oc(-c3ccc(O)c(O)c3)cc(=O)c2c1O [Compound 3b, demethyltorosaflavone D]",55.7
4,"C[C@H]1O[C@@H](c2c(O)cc3oc(-c4ccc(O)c(O)c4)cc(=O)c3c2O)C[C@H](O)[C@H]1O [Compound 1b, alternanthin B]",0.1
5,"COc1cc(-c2cc(=O)c3c(O)c(/C=C/C(=O)O)c(O)cc3o2)ccc1O [Compound 3a, torosaflavone E]",290

# Same assay, conditions: ratio of Ki values; MAO-B
row,SMILES,Si MAO-B (selectivity index between MAO-A and MAO-B)
1,"COc1cc(-c2cc(=O)c3c(O)cc(O[C@@H]4O[C@@H](C)[C@H](O)[C@@H](O)[C@H]4O)cc3o2)ccc1O [Compound 5, chrysoeriol 7-O-rhamnoside]",0.2915
2,"COc1cc(-c2cc(=O)c3c(O)c([C@H]4C[C@H](O)[C@@H](O)[C@@H](C)O4)c(O)cc3o2)ccc1O [Compound 1a, altheranthin]",2.1364
3,"O=C(O)/C=C/c1c(O)cc2oc(-c3ccc(O)c(O)c3)cc(=O)c2c1O [Compound 3b, demethyltorosaflavone D]",0.4193
4,"C[C@H]1O[C@@H](c2c(O)cc3oc(-c4ccc(O)c(O)c4)cc(=O)c3c2O)C[C@H](O)[C@H]1O [Compound 1b, alternanthin B]",0.1764
5,"COc1cc(-c2cc(=O)c3c(O)c(/C=C/C(=O)O)c(O)cc3o2)ccc1O [Compound 3a, torosaflavone E]",0.0601

# Same assay, conditions: recombinant human MAO-B, kynuramine, pH 7.4, 37 °C, 20 min; mean ± SD
row,SMILES,IC50 [nM]
1,"COc1cc(-c2cc(=O)c3c(O)cc(O[C@@H]4O[C@@H](C)[C@H](O)[C@@H](O)[C@H]4O)cc3o2)ccc1O [Compound 5, chrysoeriol 7-O-rhamnoside]",544 ± 330
2,"O=C(O)/C=C/c1c(O)cc2oc(-c3ccc(O)c(O)c3)cc(=O)c2c1O [Compound 3b, demethyltorosaflavone D]",129
3,"COc1cc(-c2cc(=O)c3c(O)c(/C=C/C(=O)O)c(O)cc3o2)ccc1O [Compound 3a, torosaflavone E]",675 ± 460
